In patent publication US8841425B2, “Cytotoxic agents comprising new maytansinoids” (ImmunoGen, Inc., priority 2003, dated 2014):

Experiments:
[1] = system: CD19-positive Ramos human tumor cells; test: MTT-based cytotoxicity of huB4-DM4, Ramos cells; type: cell-based; details: MTT-based assay, FIG. 12
Method: (§1) The cytotoxicity of huB4-DM4 toward CD19-expressing cells (Ramos) compared to a CD19-negative cell line (Colo 205) was tested using an MTT-based assay, where cell killing activity is determined by quantifying the number of viable cells that remain following treatment with conjugate. Viable cell number is determined by spectrophotometric quantitation following incubation of the cells with the vital dye MTT.

[2] = system: CD19-negative cell line (Colo 205); test: MTT-based cytotoxicity of huB4-DM4, Colo 205 cells; type: cell-based, human; details: MTT-based assay, non-target Colo 205 cells, FIG. 12
Method: as §1

[3] = system: human Ramos tumor xenografts; test: In vivo efficacy of huB4-DM4 against Ramos xenografts in SCID mice; parameters: species or system mouse
Method: The efficacy of huB-DM4 in vivo was determined using SCID mice bearing established human Ramos tumor xenografts. Ramos cells were injected subcutaneously and tumors were allowed to grow to an average size of 100 mm^3. Dosage is expressed as μg DM4 in the conjugate, which corresponds to an antibody dose of approximately 44 μg antibody per μg of DM4. Tumor volume was measured as an indication of treatment efficacy and mouse body weight was monitored to indicate toxicity due to treatment. […] Animals remain without measurable disease for about 35 days in the […] treatment group, and for more than 55 days in the two highest dose groups.

CD19 = target: T1, CD19 (Homo sapiens, UniProt P15391); test: Binding affinity of huB4 conjugate by flow cytometry; details: after conjugation
T1 sequence (P15391 20-556): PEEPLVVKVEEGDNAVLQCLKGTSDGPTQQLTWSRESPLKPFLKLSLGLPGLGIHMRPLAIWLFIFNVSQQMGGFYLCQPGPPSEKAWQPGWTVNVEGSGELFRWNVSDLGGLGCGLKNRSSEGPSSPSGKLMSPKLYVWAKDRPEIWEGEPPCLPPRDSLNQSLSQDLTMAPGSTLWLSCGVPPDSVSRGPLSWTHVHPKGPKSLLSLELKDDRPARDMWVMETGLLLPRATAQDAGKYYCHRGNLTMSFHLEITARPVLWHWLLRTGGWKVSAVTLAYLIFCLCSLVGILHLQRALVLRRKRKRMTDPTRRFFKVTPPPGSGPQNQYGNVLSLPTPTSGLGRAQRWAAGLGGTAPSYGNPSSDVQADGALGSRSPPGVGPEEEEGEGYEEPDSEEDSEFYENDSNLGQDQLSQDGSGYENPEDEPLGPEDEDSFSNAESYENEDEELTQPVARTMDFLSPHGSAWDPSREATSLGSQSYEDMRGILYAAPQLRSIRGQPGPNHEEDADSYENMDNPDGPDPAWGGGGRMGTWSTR
Method: A solution of huB4 antibody at a concentration of 20 mg/mL was incubated for 1.5 h with an 8-fold molar excess of SSNPB [sulfosuccinimidyl 4-(5′-nitro-2′-pyridyldithio)butyrate] in 50 mM potassium phosphate buffer, pH 6.5 containing 2 mM ethylenediaminetetraacetic acid (buffer A) with 5% dimethylacetamide. The modified antibody was purified by passage through a Sephadex G25 gel filtration column equilibrated in buffer A and the concentration of the purified antibody was determined spectrophotometrically using the extinction coefficient for the antibody at 280 nm (199,560 M^−1 cm^−1). The modified antibody was diluted to 8 mg/mL with buffer A and incubated for 3 h at ambient temperature with a 1.7-fold molar excess of DM4, which was added to the reaction mixture as a stock solution in dimethylacetamide (final concentration of dimethylacetamide was 3% v/v). […] The concentration of conjugate was determined spectrophotometrically using the know extinction coefficients for antibody (ε280 nm: 199,560 M^−1 cm^−1; ε252 nm: 67,850 M^−1 cm^−1) and DM4 (ε280 nm=5,700 M^−1 cm^−1, ε252 […]=26,790 M^−1 cm^−1). […] The amount of drug associated with the antibody that was not linked covalently (free drug) was determined by HPLC analysis and was approximately 2% of the total linked drug.

huB4-DM4: huB4 (anti-CD19) antibody modified with SSNPB and linked to DM4, average of 4.0 DM4 molecules per antibody molecule
cell killing activity toward Ramos cells [1]: potent cell killing activity
toxicity toward CD19-negative cells [2]: No significant toxicity
toxicity as judged by changes in body weight ([3]; SCID mice, single i.v. injection, FIG. 13b): very little if any toxicity
tumor response ([3]; SCID mice, single i.v. injection, doses above 50 μg/kg): complete regression of the tumors in all animals
time without measurable disease ([3]; single i.v. injection, 100 mg/kg treatment group): about 35 days
time without measurable disease ([3]; single i.v. injection, two highest dose groups): more than 55 days
anti-tumor activity ([3]; subcutaneous Ramos tumor model, FIG. 13a): high anti-tumor activity in a dose-dependent manner
tumor response ([3]; subcutaneous Ramos tumor model, doses that are non-toxic, FIG. 13a,b): Complete tumor regressions and cures
binding affinity compared with unmodified antibody (CD19): comparable to the unmodified antibody
